Source: publication PMC5125662, “The Open Form Inducer Approach for Structure-Based Drug Design” (PLoS ONE, 2016)
Where two headings read alike, the source gives them in different places.

How the values were obtained:
TcDHODH = target: T1, TcDHODH (Trypanosoma cruzi, UniProt Q4D3W2); experiment: biochemical; details: for IC50: 500 μM L-dihydroorotate, 2 mM fumarate, pH 8.0; for Ki: read-out: TcDHODH Ki^app
T1 construct: made in house
T1 sequence (Q4D3W2 1-314): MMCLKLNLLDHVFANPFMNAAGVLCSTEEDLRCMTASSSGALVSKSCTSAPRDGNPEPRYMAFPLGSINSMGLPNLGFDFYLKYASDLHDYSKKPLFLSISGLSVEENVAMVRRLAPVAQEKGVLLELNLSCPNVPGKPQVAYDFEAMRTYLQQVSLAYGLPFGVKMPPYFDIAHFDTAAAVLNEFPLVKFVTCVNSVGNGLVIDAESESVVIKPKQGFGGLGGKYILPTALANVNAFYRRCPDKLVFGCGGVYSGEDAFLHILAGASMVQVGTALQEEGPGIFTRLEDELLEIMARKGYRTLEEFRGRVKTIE

[1] = design: method as in earlier work; details: cited from earlier work

IC50 (TcDHODH)	Ki (TcDHODH; calculated from IC50 by Cheng-Prusoff equation, Km for dihydroorotate […])	Ki (TcDHODH)	Structure (SMILES)	pKa [1]
112 ± 21 µM	5.51 µM	–	O=C(O)c1cc(=O)[nH]c(=O)[nH]1 [ORO, orotate, reference compound]	–
–	–	–	O=C(O)c1ccc2ccccc2c1 [2-naphthoic acid]	4.17
≥ 400 µM	–	> 19.7 µM	CC(C)(C)CCc1c(C(=O)O)[nH]c(=O)[nH]c1=O [Compound 1]	–
